Experimental data taken from paper PMC6646333 (Nature Communications, 2019).
≈ marks a conversion by molar mass, not a printed value.

Columns and labels:
[1] = tested on: S. pneumoniae D39; experiment: Mouse septicemia protection model; settings: for survival number: 5 mg/kg i.v., 6 mice per group
[2] = tested on: MRSA ATCC 33591; experiment: Neutropenic mouse thigh infection model; settings: 50 mg /kg i.v., 2 h post infection
[3] = tested on: E. faecalis ATCC29212; experiment: MIC, broth microdilution, E. faecalis ATCC29212; format: cell-based, Enterococcus faecalis; settings: for MIC, E. faecalis ATCC29212: broth microdilution, 0.01% polysorbate 80
Method: (§1) MIC[18] was tested by broth microdilution according to CLSI guidelines. The state of all teixobactin analogs is amorphous, and the compounds are in the salt form of trifluoroacetates. Analogs were stored in DMSO in the concentration of 10 mg/ml. The test medium for most species of bacteria was cation adjusted Mueller–Hinton Broth containing 0.01% polysorbate 80 to prevent analogs binding to plastic surfaces. […] For the test of Streptococci, MHB contains 3% lysed horse blood (Cleveland Scientific, Bath, OH). The concentration of cell was ~5 × 10^5 cells ml^−1. […] Besides the standard strains from ATCC, all the clinical isolates are from 302 hospital. The assay was done three times to confirm results (n = 3).

[4] = tested on: E. faecalis TH4130; experiment: MIC, broth microdilution, E. faecalis TH4130; format: cell-based, Enterococcus faecalis; settings: for MIC, E. faecalis TH4130: broth microdilution, 0.01% polysorbate 80
Method: as §1

[5] = tested on: E. faecalis TH4132; experiment: MIC, broth microdilution, E. faecalis TH4132; format: cell-based, Enterococcus faecalis; settings: for MIC, E. faecalis TH4132: broth microdilution, 0.01% polysorbate 80
Method: as §1

[6] = tested on: E. faecalis TH4126; experiment: MIC, broth microdilution, E. faecalis TH4126; format: cell-based, Enterococcus faecalis; settings: for MIC, E. faecalis TH4126: broth microdilution, 0.01% polysorbate 80
Method: as §1

[7] = tested on: VRE TH4939; experiment: MIC, broth microdilution, VRE TH4939; format: cell-based, vancomycin resistant Enterococcus faecalis; settings: for MIC, VRE TH4939: broth microdilution, 0.01% polysorbate 80
Method: as §1

[8] = tested on: VRE TH4937; experiment: MIC, broth microdilution, VRE TH4937; format: cell-based, vancomycin resistant Enterococcus faecalis; settings: for MIC, VRE TH4937: broth microdilution, 0.01% polysorbate 80
Method: as §1

[9] = tested on: MRSA BAA-1695; experiment: MIC, broth microdilution, MRSA BAA-1695; format: cell-based, Staphylococcus aureus; settings: for MIC, MRSA BAA-1695: broth microdilution, 0.01% polysorbate 80
Method: as §1

[10] = tested on: MRSA TH4115; experiment: MIC, broth microdilution, MRSA TH4115; format: cell-based, Staphylococcus aureus; settings: for MIC, MRSA TH4115: broth microdilution, 0.01% polysorbate 80
Method: as §1

[11] = tested on: S. aureus TH4112; experiment: MIC, broth microdilution, S. aureus TH4112; format: cell-based, Staphylococcus aureus; settings: for MIC, S. aureus TH4112: broth microdilution, 0.01% polysorbate 80
Method: as §1

[12] = tested on: S. aureus ATCC29213; experiment: MIC, broth microdilution, S. aureus ATCC29213; format: cell-based; settings: Staphylococcus aureus, broth microdilution (CLSI), MHB + 0.01% polysorbate 80, five independent experiments ± s.d. (n = 5)
Method: as §1

[13] = tested on: MRSA ATCC33591; experiment: MIC, broth microdilution, MRSA ATCC33591; format: cell-based; settings: Staphylococcus aureus; broth microdilution (CLSI), MHB + 0.01% polysorbate 80; five independent experiments ± s.d. (n = 5)
Method: as §1

[14] = tested on: MRSA; settings: ref J Med Chem, 2018, 61, 2009; cited from earlier work
Description: page 6: Reply: Thanks for the reviewer’s kind comments. […] (please see the reference 34). In the paper published in Scientific Reports, they proposed that two teixobactin bind pyrophosphate-MurNAc and glutamic acid residue of one Lipid II respectively. Undeniably, this is an important discovery. Its structure model also explains experimental obervations that the pyrophosphate-MurNAc moiety is the minimal motif for binding. We selected the similar truncated lipid II i ...

[15] = Enterococcus, VRE, broth microdilution (CLSI), MHB + 0.01% polysorbate 80, 37 °C, 16–20 h, n = 3

CN[C@H](CC(C)C)C(=O)N[C@H]1C(=O)N[C@@H](CC(N)=O)C(=O)N[C@H]2C(=O)N[C@H]3C(=O)N[C@H](C(=O)N[C@H](C(=O)O)c4cc(O)cc(O)c4-c4cc3ccc4O)[C@H](O)c3ccc(c(Cl)c3)Oc3cc2cc(c3O[C@@H]2O[C@H](CO)[C@@H](O)[C@H](O)[C@H]2O[C@H]2C[C@](C)(N)[C@H](O)[C@H](C)O2)Oc2ccc(cc2Cl)[C@H]1O [Vancomycin]
survival number ([1]; 24 h post-infection): 6
survival number ([1]; 36 h post-infection): 6
survival number ([1]; 48 h post-infection): 6
Survival rate 48 h after infection ([1]; single dose 5 mg kg^−1 i.v., 1 h post infection, positive control, six female mice per group): 100%
Log C.F.U. / mouse thigh ([2]; mouse 1): 3.903 Log C.F.U. / mouse thigh
Log C.F.U. / mouse thigh ([2]; mouse 2): 3.176 Log C.F.U. / mouse thigh
Log C.F.U. / mouse thigh ([2]; mouse 3): 3.748 Log C.F.U. / mouse thigh

CC1(C)S[C@@H]2[C@H](NC(=O)[C@H](N)c3ccccc3)C(=O)N2[C@H]1C(=O)O [Ampicillin]
MIC ([3]; Enterococcus faecalis, ATCC29212, broth microdilution (CLSI), MHB + 0.01% polysorbate 80, 37 °C, 16–20 h, n = 3): 1 µg/mL
MIC, E. faecalis ATCC29212 ([3]; replicate 1 (Source Data)): 1 µg/mL (≈ 2.86 µM)
MIC, E. faecalis ATCC29212 ([3]; replicate 2 (Source Data)): 1 µg/mL (≈ 2.86 µM)
MIC, E. faecalis ATCC29212 ([3]; replicate 3 (Source Data)): 1 µg/mL (≈ 2.86 µM)
MIC ([4]; Enterococcus faecalis, TH4130, broth microdilution (CLSI), MHB + 0.01% polysorbate 80, 37 °C, 16–20 h, n = 3): 16 µg/mL
MIC, E. faecalis TH4130 ([4]; replicate 1 (Source Data)): 16 µg/mL (≈ 45.8 µM)
MIC, E. faecalis TH4130 ([4]; replicate 2 (Source Data)): 16 µg/mL (≈ 45.8 µM)
MIC, E. faecalis TH4130 ([4]; replicate 3 (Source Data)): 16 µg/mL (≈ 45.8 µM)
MIC ([5]; Enterococcus faecalis, TH4132, broth microdilution (CLSI), MHB + 0.01% polysorbate 80, 37 °C, 16–20 h, n = 3): 1 µg/mL
MIC, E. faecalis TH4132 ([5]; replicate 1 (Source Data)): 1 µg/mL (≈ 2.86 µM)
MIC, E. faecalis TH4132 ([5]; replicate 2 (Source Data)): 1 µg/mL (≈ 2.86 µM)
MIC, E. faecalis TH4132 ([5]; replicate 3 (Source Data)): 1 µg/mL (≈ 2.86 µM)
MIC ([6]; Enterococcus faecalis, TH4126, broth microdilution (CLSI), MHB + 0.01% polysorbate 80, 37 °C, 16–20 h, n = 3): > 32 µg/mL
MIC, E. faecalis TH4126 ([6]; replicate 1 (Source Data)): >32 µg/mL
MIC, E. faecalis TH4126 ([6]; replicate 2 (Source Data)): >32 µg/mL
MIC, E. faecalis TH4126 ([6]; replicate 3 (Source Data)): >32 µg/mL
MIC [7, 15]: > 32 µg/mL
MIC, VRE TH4939 ([7]; replicate 1 (Source Data)): >32 µg/mL
MIC, VRE TH4939 ([7]; replicate 2 (Source Data)): >32 µg/mL
MIC, VRE TH4939 ([7]; replicate 3 (Source Data)): >32 µg/mL
MIC [8, 15]: > 32 µg/mL
MIC, VRE TH4937 ([8]; replicate 1 (Source Data)): >32 µg/mL
MIC, VRE TH4937 ([8]; replicate 2 (Source Data)): >32 µg/mL
MIC, VRE TH4937 ([8]; replicate 3 (Source Data)): >32 µg/mL
MIC ([9]; Staphylococcus aureus, broth microdilution (CLSI), MHB + 0.01% polysorbate 80, 37 °C, 16–20 h, n = 3): > 32 µg/mL
MIC, MRSA BAA-1695 ([9]; replicate 1 (Source Data)): >32 µg/mL
MIC, MRSA BAA-1695 ([9]; replicate 2 (Source Data)): >32 µg/mL
MIC, MRSA BAA-1695 ([9]; replicate 3 (Source Data)): >32 µg/mL
MIC ([10]; Staphylococcus aureus, MRSA, broth microdilution (CLSI), MHB + 0.01% polysorbate 80, 37 °C, 16–20 h, n = 3): 32 µg/mL
MIC, MRSA TH4115 ([10]; replicate 1 (Source Data)): 32 µg/mL (≈ 91.6 µM)
MIC, MRSA TH4115 ([10]; replicate 2 (Source Data)): 32 µg/mL (≈ 91.6 µM)
MIC, MRSA TH4115 ([10]; replicate 3 (Source Data)): 32 µg/mL (≈ 91.6 µM)
MIC ([11]; Staphylococcus aureus, TH4112, broth microdilution (CLSI), MHB + 0.01% polysorbate 80, 37 °C, 16–20 h, n = 3): 0.5 µg/mL
MIC, S. aureus TH4112 ([11]; replicate 1 (Source Data)): 0.5 µg/mL (≈ 1.43 µM)
MIC, S. aureus TH4112 ([11]; replicate 2 (Source Data)): 0.5 µg/mL (≈ 1.43 µM)
MIC, S. aureus TH4112 ([11]; replicate 3 (Source Data)): 0.5 µg/mL (≈ 1.43 µM)
MIC [12]: 2 µg/mL
MIC [13]: > 16 µg/mL

Arg10-teixobactin
Loss of potency compared with teixobactin [14]: more than 4 fold
MIC against MRSA [14]: 2 µg/mL
